Data from paper PMC10734773, “Synthesis of benzoyl hydrazones having 4-hydroxy-3,5-dimethoxy phenyl ring, their biological activities, and molecular modeling studies on enzyme inhibition activities” (Turkish Journal of Chemistry, 2021).

How the values were obtained:
[1] = target: T1, Tyrosinase (tyrosinase mushroom); test: spectrophotometric dopachrome assay, […] nm; type: biochemical, Agaricus bisporus; details: L-DOPA, pH 6.8, 37 °C, 10 min preincubation
T1 construct: gene PPO3; native mushroom tyrosinase preparation, isoenzyme mixture not resolved; only 'mushroom' given

[2] = target: T2, BChE (butyrylcholinesterase from horse serum) (Equus caballus, UniProt P81908); test: Ellman assay, […] nm; type: biochemical; details: butyrylthiocholine chloride, DTNB, pH 8.0, room conditions, 15 min preincubation
T2 construct: native enzyme preparation from horse serum

[3] = target: AChE (acetylcholinesterase from eel) (Electrophorus electricus, UniProt O42275); details: acetylthiocholine-type substrate (AcI [sic]), DTNB, pH 8.0, 25 °C, 15 min preincubation
Sequence of AChE (acetylcholinesterase from eel) (O42275 24-633): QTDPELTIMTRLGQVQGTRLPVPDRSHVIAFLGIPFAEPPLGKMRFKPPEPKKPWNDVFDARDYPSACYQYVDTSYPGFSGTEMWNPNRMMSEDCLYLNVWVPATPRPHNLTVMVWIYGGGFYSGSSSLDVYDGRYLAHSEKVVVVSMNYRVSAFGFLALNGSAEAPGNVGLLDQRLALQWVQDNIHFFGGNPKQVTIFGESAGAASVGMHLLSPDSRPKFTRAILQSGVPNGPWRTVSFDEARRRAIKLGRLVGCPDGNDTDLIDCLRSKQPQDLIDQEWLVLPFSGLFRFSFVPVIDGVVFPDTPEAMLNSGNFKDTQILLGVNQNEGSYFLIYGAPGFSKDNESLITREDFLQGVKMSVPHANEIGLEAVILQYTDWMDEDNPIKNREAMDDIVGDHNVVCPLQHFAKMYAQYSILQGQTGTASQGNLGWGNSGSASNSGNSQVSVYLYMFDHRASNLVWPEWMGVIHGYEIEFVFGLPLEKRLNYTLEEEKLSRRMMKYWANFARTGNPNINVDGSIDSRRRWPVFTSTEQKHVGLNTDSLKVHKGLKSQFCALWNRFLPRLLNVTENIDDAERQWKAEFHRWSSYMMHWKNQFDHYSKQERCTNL

T2 sequence (P81908 whole entry): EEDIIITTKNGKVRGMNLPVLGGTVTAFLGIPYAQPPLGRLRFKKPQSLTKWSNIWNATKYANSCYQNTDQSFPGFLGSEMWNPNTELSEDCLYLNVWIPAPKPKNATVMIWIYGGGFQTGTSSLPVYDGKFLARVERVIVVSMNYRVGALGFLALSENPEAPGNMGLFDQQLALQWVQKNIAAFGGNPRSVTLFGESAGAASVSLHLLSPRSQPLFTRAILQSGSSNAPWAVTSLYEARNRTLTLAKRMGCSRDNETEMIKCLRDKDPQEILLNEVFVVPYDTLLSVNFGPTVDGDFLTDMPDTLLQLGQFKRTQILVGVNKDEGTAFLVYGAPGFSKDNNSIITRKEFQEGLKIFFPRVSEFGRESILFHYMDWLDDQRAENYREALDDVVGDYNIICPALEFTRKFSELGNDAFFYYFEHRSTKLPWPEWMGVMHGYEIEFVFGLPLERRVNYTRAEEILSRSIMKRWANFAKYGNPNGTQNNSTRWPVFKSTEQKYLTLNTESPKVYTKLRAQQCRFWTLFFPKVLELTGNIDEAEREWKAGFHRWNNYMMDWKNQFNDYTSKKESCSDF

Compound	Tyrosinase activity (IC50 mM/mL) [1] [mM/mL]	Anticholinesterase Activity / BChE assay (IC50 μM/mL) [2] [μM/mL]	Anticholinesterase Activity / AChE assay (IC50 μM/mL) (IC50 μM/mL) [3] [μM/mL]
COc1cc(C=NNC(=O)c2ccc(Cl)cc2)cc(OC)c1O [7c, 4-chloro-N′-(4-hydroxy-3,5-dimethoxybenzylidene)benzohydrazide]	70.91 ± 0.24	102.87 ± 0.48	82.14 ± 0.56
COc1cc(C=NNC(=O)c2ccc(Br)cc2)cc(OC)c1O [7b, 4-bromo-N′-(4-hydroxy-3,5-dimethoxybenzylidene)benzohydrazide]	82.08 ± 1.09	116.82 ± 0.66	93.00 ± 1.11
COc1cc(C=NNC(=O)c2cccc(C(F)(F)F)c2)cc(OC)c1O [7h, N′-(4-hydroxy-3,5-dimethoxybenzylidene)-3-(trifluoromethyl)benzohydrazide]	56.88 ± 0.37	88.70 ± 0.77	73.75 ± 0.34
COc1cc(C=NNC(=O)c2cc(C(F)(F)F)cc(C(F)(F)F)c2)cc(OC)c1O [7j, N′-(4-hydroxy-3,5-dimethoxybenzylidene)-3,5-bis-(trifluoromethyl)benzohydrazide]	40.08 ± 0.86	57.30 ± 0.87	44.83 ± 0.12
COc1cc(C=NNC(=O)c2cccc(OC(F)(F)F)c2)cc(OC)c1O [7l, N′-(4-hydroxy-3,5-dimethoxybenzylidene)-3-(trifluoromethoxy)benzohydrazide]	24.30 ± 0.78	80.62 ± 0.36	68.09 ± 0.02
COc1cc(C=NNC(=O)c2ccc(C(F)(F)F)cc2)cc(OC)c1O [7i, N′-(4-hydroxy-3,5-dimethoxybenzylidene)-4-(trifluoromethyl)benzohydrazide]	49.73 ± 0.12	64.09 ± 0.30	51.08 ± 0.41
COc1cc(C=NNC(=O)c2ccc([N+](=O)[O-])cc2)cc(OC)c1O [7f, N′-(4-hydroxy-3,5-dimethoxybenzylidene)-4-nitrobenzohydrazide]	18.22 ± 0.35	52.39 ± 0.49	40.07 ± 0.25
COc1cc(C=NNC(=O)c2ccccc2OC(F)(F)F)cc(OC)c1O [7k, N′-(4-hydroxy-3,5-dimethoxybenzylidene)-2-(trifluoromethoxy)benzohydrazide]	29.78 ± 0.43	69.18 ± 0.98	59.31 ± 0.77
COc1cc(C=NNC(=O)c2ccccc2)cc(OC)c1O [7a, N′-(4-hydroxy-3,5-dimethoxybenzylidene)benzohydrazide]	88.73 ± 0.26	122.04 ± 0.87	101.04 ± 0.49
COc1cc(C=NNC(=O)c2ccc(F)cc2)cc(OC)c1O [7d, 4-fluoro-N′-(4-hydroxy-3,5-dimethoxybenzylidene)benzohydrazide]	64.38 ± 0.99	109.44 ± 0.09	88.37 ± 0.11
COc1ccc(C(=O)NN=Cc2cc(OC)c(O)c(OC)c2)cc1 [7e, N′-(4-hydroxy-3,5-dimethoxybenzylidene)-4-methoxybenzohydrazide]	10.15 ± 0.04	96.33 ± 0.61	75.01 ± 0.94
COc1cc(C=NNC(=O)c2ccc(OC(F)(F)F)cc2)cc(OC)c1O [7m, N′-(4-hydroxy-3,5-dimethoxybenzylidene)-4-(trifluoromethoxy)benzohydrazide]	36.62 ± 0.56	77.26 ± 0.42	62.04 ± 0.39
COc1cc(C=NNC(=O)c2ccccc2C(F)(F)F)cc(OC)c1O [7g, N′-(4-hydroxy-3,5-dimethoxybenzylidene)-2-(trifluoromethyl)benzohydrazide]	61.07 ± 0.55	83.08 ± 0.34	70.13 ± 0.89
